# Data reported in patent EP0292169B1, “Substrates for B-galactosidase” (Bayer Corporation, priority 1987, dated 1988).
# Read-outs that look alike come from different tables or passages of the source.
# How the values were obtained:
# [1] = Molar absorptivity of phenolic precursors of substrates; type: physicochemical
# Description: The molar absorptivity (εmax) of the phenolic precursors of several substrates of this invention were measured and calculated according to the following formula: [formula] wherein A is the absorbance; b is the path length through the sample; and c is the concentration of solute.
# The molar absorptivity of the phenolic precursor of ONPG, the most commonly used prior art substrate for β-galactosidase was likewise measured and calculated for comparative purposes. The aim was to identify phenolic precursors which would provide enhanced molar absorptivity to that of ONPG.
# [2] = target: T1, β-galactosidase (Escherichia coli, UniProt P00722); conditions: available from the literature, cited from earlier work
# [3] = target: T1, β-galactosidase; type: biochemical; conditions: antibody titration curve, Fig. 3
# [4] = target: T1, β-galactosidase; type: biochemical; conditions: for Km / V max: calculated from experimental data of Figs. 1 and 2
# [5] = Stability in aqueous environment; type: physicochemical
# T1 sequence (P00722 2-1024): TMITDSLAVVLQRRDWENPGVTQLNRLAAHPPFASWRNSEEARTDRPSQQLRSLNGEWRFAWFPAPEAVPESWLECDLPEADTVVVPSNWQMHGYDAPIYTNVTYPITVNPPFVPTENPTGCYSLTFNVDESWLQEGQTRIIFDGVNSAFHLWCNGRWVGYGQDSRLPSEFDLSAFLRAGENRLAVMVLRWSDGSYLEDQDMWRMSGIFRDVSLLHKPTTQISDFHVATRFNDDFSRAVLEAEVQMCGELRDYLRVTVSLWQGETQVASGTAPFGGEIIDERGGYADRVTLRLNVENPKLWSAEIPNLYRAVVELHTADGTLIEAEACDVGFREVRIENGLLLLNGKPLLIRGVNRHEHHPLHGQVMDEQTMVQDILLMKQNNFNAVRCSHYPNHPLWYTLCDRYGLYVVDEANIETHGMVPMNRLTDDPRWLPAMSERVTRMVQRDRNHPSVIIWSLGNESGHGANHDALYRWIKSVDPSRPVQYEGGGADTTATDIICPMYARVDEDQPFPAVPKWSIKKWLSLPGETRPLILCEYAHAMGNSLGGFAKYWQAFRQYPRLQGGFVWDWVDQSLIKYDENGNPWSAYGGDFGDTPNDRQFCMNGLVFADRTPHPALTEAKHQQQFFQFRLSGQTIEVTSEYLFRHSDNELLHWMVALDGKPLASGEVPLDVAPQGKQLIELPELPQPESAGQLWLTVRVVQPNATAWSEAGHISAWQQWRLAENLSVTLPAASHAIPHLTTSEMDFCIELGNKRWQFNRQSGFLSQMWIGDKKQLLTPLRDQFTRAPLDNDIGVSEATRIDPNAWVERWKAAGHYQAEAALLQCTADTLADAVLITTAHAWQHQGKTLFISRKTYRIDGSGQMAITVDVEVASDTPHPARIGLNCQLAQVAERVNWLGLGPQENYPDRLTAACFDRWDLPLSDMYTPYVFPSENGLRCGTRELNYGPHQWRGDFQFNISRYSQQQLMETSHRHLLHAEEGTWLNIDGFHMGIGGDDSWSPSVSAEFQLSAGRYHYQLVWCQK
compound,measurement,setting,value
"O=[N+]([O-])c1ccc(O)c(Cl)c1 [CLNP, 2-chloro-4-nitrophenol]",Molar Absorptivity (εmax),"[1]; 405 nm, pH 7.5","16.9 (405 nm, pH 7.5)"
"O=[N+]([O-])c1ccccc1O [ONP, orthonitro phenol, reference compound]",Molar Absorptivity (εmax),"[1]; 405 nm, pH 7.5","3.0 (405 nm, pH 7.5)"
Cc1cc(C2(c3cc(C)c(O)c(Br)c3)OS(=O)(=O)c3ccccc32)cc(Br)c1O [bromocresol purple],Molar Absorptivity (εmax),"[1]; 585 nm, pH 8.5","50.7 (585 nm, pH 8.5)"
"O=[N+]([O-])c1ccccc1O[C@@H]1O[C@H](CO)[C@H](O)[C@H](O)[C@H]1O [ONPG, O-nitrophenyl-β-D-galactopyranoside]",V max,[2],0.03 ΔA/Min
same,Km,[2]; read-out: Km,170 µM
Cc1cc(O)ccc1C1(c2ccc(O)cc2C)OS(=O)(=O)c2ccccc21 [metacresol purple],Molar Absorptivity (εmax),"[1]; 575 nm, pH 8.5","8.4 (575 nm, pH 8.5)"
"O=[N+]([O-])c1ccc(O[C@@H]2O[C@H](CO)[C@H](O)[C@H](O)[C@H]2O)c(Cl)c1 [CLNPG, 2-chloro-4-nitrophenyl-β-D-galactopyranoside]",increase in assay sensitivity over ONPG,[3],four-fold
same,V max relative to that of ONPG,[4]; CLNPG versus ONPG,at least four times
same,Km,[4],200 µM
same,V max,[4],0.13 ΔA/Min
"O=[N+]([O-])c1cc(Cl)c(O)c(Cl)c1 [2,6-dichloro-4-nitrophenol]",Molar Absorptivity (εmax),"[1]; 405 nm, pH 7.5","15.9 (405 nm, pH 7.5)"
"O=[N+]([O-])c1ccc(O[C@@H]2O[C@H](CO)[C@H](O)[C@H](O)[C@H]2O)c([N+](=O)[O-])c1 [DNPG, 2,4-dinitro-phenyl-β-D-galactopyranoside]",Km,[2],220 µM
same,V max,[2],0.13 ΔA/Min
same,stability in aqueous environment,[5],unstable
O=[N+]([O-])c1cccc(Cl)c1O [2-chloro-6-nitrophenol],Molar Absorptivity (εmax),"[1]; 405 nm, pH 7.5","4.6 (405 nm, pH 7.5)"
"O=[N+]([O-])c1ccc(O)c([N+](=O)[O-])c1 [DNP, 2,4-dinitro phenol]",Molar Absorptivity (εmax),[1]; pH 7.5,"10.7 (405 nm, pH 7.5)"
"bromocresol purple-β-D-galactopyranoside [BCPG, reference compound]",V max,[4],0.11 ΔA/Min
same,Km,[4]; read-out: Km,8000 µM
